Experimental data as given in patent US20260209208A1, “PHENYL-PYRAZOLE CARBOXAMIDE COMPOUNDS” (Acrivon Therapeutics, Inc., priority 2022, published 2026).

Columns and labels:
Myt1 Kinase = target: T1, Myt1 Kinase (Homo sapiens, UniProt Q99640); experiment: AlphaLISA SureFire Ultra Human Phospho-CDK1 (Thr14) target engagement assay in DAOY cells; assay type: cell-based; details: 4 h incubation, Cdk1 phosphorylated on threonine 14, read-out: TE Myt1 Kinase (AlphaLISA)
T1 construct: endogenous in cells; host or cells: DAOY medulloblastoma cells (ATCC)
T1 sequence (Q99640 1-499): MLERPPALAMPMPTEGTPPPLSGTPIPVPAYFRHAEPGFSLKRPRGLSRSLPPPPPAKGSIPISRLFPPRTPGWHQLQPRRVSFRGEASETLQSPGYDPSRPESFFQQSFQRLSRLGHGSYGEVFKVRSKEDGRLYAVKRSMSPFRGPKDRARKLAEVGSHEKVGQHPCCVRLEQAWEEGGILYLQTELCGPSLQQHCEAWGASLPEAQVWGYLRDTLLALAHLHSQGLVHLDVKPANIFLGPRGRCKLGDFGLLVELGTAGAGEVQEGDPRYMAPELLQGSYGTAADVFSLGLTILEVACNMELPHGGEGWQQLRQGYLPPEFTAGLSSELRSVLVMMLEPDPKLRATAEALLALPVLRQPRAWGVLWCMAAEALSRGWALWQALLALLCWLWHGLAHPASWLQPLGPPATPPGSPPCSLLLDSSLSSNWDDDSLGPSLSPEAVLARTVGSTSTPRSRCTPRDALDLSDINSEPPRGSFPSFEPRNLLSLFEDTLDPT
Description: The following cellular assay was used to determine the extent to which the compounds disclosed herein inhibit phosphorylation of CDK1 at Thr 14.
(§1) DAOY medulloblastoma cell line (ATCC) was cultured in Minimum Essential Medium Eagle supplemented with 10% fetal calf serum (Sigma), 1% Penicillin-Streptomycin and 10 mM HEPES buffer (HyClone). Cell cultures were kept in a humidified incubator at 37° C. and 5% CO2. Cells were routinely tested for Mycoplasma contamination.
For target engagement assessment, quantification of Cdk1 phosphorylated on threonine 14 was detected using the AlphaLISA® SureFire® Ultra™ Human Phospho-CDK1 (Thr14) assay (Perkin Elmer). DAOY cells were seeded into tissue culture 96-well plates (VWR) to a density of 10,000 cells per well. Twenty-four hours post-seeding cells were incubated for 4 h with test compounds at concentrations ranging from 7 to 5000 nM. Cells were washed with PBS and lysed in 50 μl AlphaLISA® lysis buffer before freezing at −80° C. Ten μl of the lysate was transferred to 384 well plates and incubated with AlphaLISA® donor and acceptor beads according to the manufacturer's instructions. Dose response curves and EC50 values were calculated and visualized using GraphPad Prism version 9.

[1] = target: T2, recombinant human PMYT-1 (Myt1 kinase) (Homo sapiens, UniProt Q99640); experiment: LanthaScreen Europium (Eu) Kinase Binding Assay for Myt1 kinase; details: TR-FRET tracer 178 displacement, GST-tagged full length PMYT-1, 60 min, room temperature; mean IC50; read-out: LANTHA Kinase Binding for PMyt1
T2 construct: full length PMYT-1 was expressed by baculovirus in insect cells using a N-terminal GST tag; purchased Invitrogen A30984; host or cells: insect cells (baculovirus)
T2 sequence (Q99640 1-499): T1 sequence (Q99640 1-499)
Text: We used a LanthaScreen Europium (Eu) Kinase Binding Assay to determine the binding of provided compounds to Myt1 kinase. The assay utilizes an Alexa Fluor 647-labeled ATP competitive kinase tracer that binds to the ATP binding site of a GST-tagged Myt1 kinase, while a europium (Eu) labeled antibody binds to the GST tag. The proximity of fluorescently labeled kinase tracer and europium (Eu) donor fluorophore antibody leads to fluorescence resonance energy transfer (FRET) to the fluorescence label (acceptor) upon excitation of the Eu (donor). Displacement of tracer from the ATP-binding site by a test compound disturbs the proximity between both labels thus lowering the FRET.
This time resolved-FRET binding assay was performed in white 384-well low volume plates (Greiner, cat #784075), at room temperature in kinase buffer A (KBA; Invitrogen cat # PV3189), consisting of 50 mM HEPES-NaOH (pH 7.5), 0.01% Brij-35, 10 mM MgCl2, and 1 mM EGTA. 5 μl of compound (diluted in reaction buffer, to 1% DMSO) were added to various wells in the plate, followed by 5 μl each of recombinant human PMYT-1 (full length PMYT-1 was expressed by baculovirus in insect cells using a N-terminal GST tag (MW: 80.8 kDa) (Invitrogen cat #A30984) and LanthaScreen Eu-anti-GST antibody (Invitrogen, cat #PV5594). After this, 5 μl of kinase tracer 178 (Invitrogen, cat #PV5593) was added to the plate and the plate was incubated for 60 minutes at room temperature. The final assay conditions in each well were: 3 nM tracer 178, 2.5 nM PMYT-1 and 1 nM Eu-labeled antibody in total assay volume of 15 μl. An Envision 2104 (Perkin-Elmer) Plate Reader with the following time-resolve fluorescence setting was used for performing LanthaScreen kinase binding assay. • Excitation 320 nm (30 nm bandpass) • Kinase Tracer Emission 665 nm (10 nm bandpass) • LanthaScreen Eu-anti-Tag Antibody Emission 615 nm (10 nm bandpass) • Dichroic Mirror Instrument dependent • Delay Time 100 μs • Integration Time 200 μs
To calculate the emission ratio, the acceptor/tracer emission ([…]) was divided by the antibody/donor emission ([…]) and the average of duplicate measurement was used for calculations. Data plotting, analysis of binding, and curve fitting was done using Excel add-in XLfit version 5.5.0.5 (IDBS, Guildford, United Kingdom).

DAOY cells = experiment: Cell Titer Glo viability assay; assay type: cell-based; details: Homo sapiens, 144 hours, Cell Titer Glo 2.0
Description: as §1
DAOY cells were seeded at a density of 250 cells per well in tissue culture 384 well plates (Corning Costar). After overnight incubation, cells were incubated with test compounds at concentrations ranging from 0.17 to 10,000 nM. Viability compared to untreated control was assessed at 144 hours using Cell Titer Glo® 2.0 Viability Assay (Promega).

EC50 (Myt1 Kinase) [nM] | IC50 [1] [nM] | SMILES | EC50 (DAOY cells) [nM]
≤ 250 | ≤ 10 | CC(C)=Cc1coc(-c2nn(-c3c(C)ccc(O)c3C)c(N)c2C(N)=O)c1 [Compound 108, 5-amino-1-(3-hydroxy-2,6-xylyl)-3-[4-(2-methyl-1-propenyl)-2-furyl]-4-pyrazolecarboxamide] | 500 to 1000
≤ 250 | ≤ 10 | Cc1ccc(O)c(C)c1-n1nc(-c2cc(C(C)C)co2)c(C(N)=O)c1N [Compound 102, 5-amino-1-(3-hydroxy-2,6-xylyl)-3-(4-isopropyl-2-furyl)-4-pyrazolecarboxamide] | ≤ 500
≤ 250 | ≤ 10 | Cc1ccc(O)c(C)c1-n1nc(-c2cc(-c3cccnc3)co2)c(C(N)=O)c1N [Compound 94, 5-amino-1-(3-hydroxy-2,6-xylyl)-3-[4-(3-pyridyl)-2-furyl]-4-pyrazolecarboxamide] | ≤ 500
≤ 250 | ≤ 10 | Cc1coc(-c2nn(-c3c(C)ccc(O)c3C)c(N)c2C(N)=O)c1 [Compound 90, 5-amino-1-(3-hydroxy-2,6-xylyl)-3-(4-methyl-2-furyl)-4-pyrazolecarboxamide] | ≤ 500
≤ 250 | 10 to 100 | Cc1ccc(O)c(C)c1-n1nc(-c2ccc(C#N)o2)c(C(N)=O)c1N [Compound 101, 5-amino-3-(5-cyano-2-furyl)-1-(3-hydroxy-2,6-xylyl)-4-pyrazolecarboxamide] | > 1000
≤ 250 | ≤ 10 | Cc1ccc(O)c(C)c1-n1nc(-c2ccco2)c(C(N)=O)c1N (single isomer, unassigned) [Compound 104, 5-amino-3-(furan-2-yl)-1-(3-hydroxy-2,6-dimethylphenyl)-1H-pyrazole-4-carboxamide] | 500 to 1000
≤ 250 | ≤ 10 | Cc1ccc(O)c(C)c1-n1nc(-c2cc3ccccc3o2)c(C(N)=O)c1N [Compound 72, 5-amino-3-(1-benzofuran-2-yl)-1-(3-hydroxy-2,6-xylyl)-4-pyrazolecarboxamide] | ≤ 500
≤ 250 | ≤ 10 | Cc1ccc(O)c(C)c1-n1nc(-c2ccc(Br)o2)c(C(N)=O)c1N [Compound 73, 5-amino-3-(5-bromo-2-furyl)-1-(3-hydroxy-2,6-xylyl)-4-pyrazolecarboxamide] | ≤ 500
≤ 250 | ≤ 10 | C=Cc1coc(-c2nn(-c3c(C)ccc(O)c3C)c(N)c2C(N)=O)c1 [Compound 96, 5-amino-1-(3-hydroxy-2,6-xylyl)-3-(4-vinyl-2-furyl)-4-pyrazolecarboxamide] | ≤ 500
≤ 250 | ≤ 10 | CC#Cc1coc(-c2nn(-c3c(C)ccc(O)c3C)c(N)c2C(N)=O)c1 [Compound 114, 5-amino-1-(3-hydroxy-2,6-xylyl)-3-[4-(1-propynyl)-2-furyl]-4-pyrazolecarboxamide] | 500 to 1000
≤ 250 | ≤ 10 | COc1ccc2oc(-c3nn(-c4c(C)ccc(O)c4C)c(N)c3C(N)=O)cc2c1 [Compound 115, 5-amino-1-(3-hydroxy-2,6-dimethylphenyl)-3-(5-methoxybenzofuran-2-yl)-1H-pyrazole-4-carboxamide] | 500 to 1000
≤ 250 | ≤ 10 | Cc1ccc(O)c(C)c1-n1nc(-c2cc(Br)co2)c(C(N)=O)c1N [Compound 79, 5-amino-3-(4-bromo-2-furyl)-1-(3-hydroxy-2,6-xylyl)-4-pyrazolecarboxamide] | ≤ 500
500 to 1000 | ≤ 10 | Cc1ccc(O)c(C)c1-n1nc(-c2coc3ccccc23)c(C(N)=O)c1N [Compound 82, 5-amino-3-(1-benzofuran-3-yl)-1-(3-hydroxy-2,6-xylyl)-4-pyrazolecarboxamide] | > 1000
≤ 250 | ≤ 10 | Cc1ccc(-c2nn(-c3c(C)ccc(O)c3C)c(N)c2C(N)=O)o1 [Compound 81, 5-amino-1-(3-hydroxy-2,6-xylyl)-3-(5-methyl-2-furyl)-4-pyrazolecarboxamide] | 500 to 1000
≤ 250 | 10 to 100 | Cc1ccc(O)c(C)c1-n1nc(-c2cc(C3CC3)co2)c(C(N)=O)c1N [Compound 111, 5-amino-3-(4-cyclopropyl-2-furyl)-1-(3-hydroxy-2,6-xylyl)-4-pyrazolecarboxamide] | 500 to 1000
≤ 250 | ≤ 10 | Cc1ccc(O)c(C)c1-n1nc(-c2cc(Br)co2)c(C(N)=O)c1N (single isomer, unassigned) [Compound 106, 5-amino-3-(4-bromofuran-2-yl)-1-(3-hydroxy-2,6-dimethylphenyl)-1H-pyrazole-4-carboxamide] | ≤ 500
≤ 250 | ≤ 10 | Cc1ccc(O)c(C)c1-n1nc(-c2cccs2)c(C(N)=O)c1N [Compound 119] | 500 to 1000
500 to 1000 | 10 to 100 | NC(=O)c1c(-c2cc(Br)co2)nn(-c2c(Cl)ccc(O)c2Cl)c1N [Compound 92, 5-amino-3-(4-bromo-2-furyl)-1-(2,6-dichloro-3-hydroxyphenyl)-4-pyrazolecarboxamide] | 
> 1000 | 10 to 100 | Cc1ccc2[nH]ncc2c1-n1nc(-c2cc3ccccc3o2)c(C(N)=O)c1N [Compound 77, 5-amino-3-(1-benzofuran-2-yl)-1-(5-methyl-1H-indazol-4-yl)-4-pyrazolecarboxamide] | 
> 1000 | 10 to 100 | Cc1ccc(O)c(C)c1-n1nc(-c2ccoc2)c(C(N)=O)c1N [Compound 76, 5-amino-3-(3-furyl)-1-(3-hydroxy-2,6-xylyl)-4-pyrazolecarboxamide] | 
250 to 500 |  | Cc1ccc(O)c(C)c1-n1nc(-c2ccc(-c3ccccn3)o2)c(C(N)=O)c1N [Compound 100, 5-amino-1-(3-hydroxy-2,6-xylyl)-3-[5-(2-pyridyl)-2-furyl]-4-pyrazolecarboxamide] | > 1000
250 to 500 | ≤ 10 | Cc1ccc(O)c(C)c1-n1nc(-c2ccsc2)c(C(N)=O)c1N [Compound 120] | 
> 1000 | 10 to 100 | Cc1ccc2[nH]ncc2c1-n1nc(-c2ccccc2)c(C(N)=O)c1N [Compound 5, 5-amino-1-(5-methyl-1H-indazol-4-yl)-3-phenyl-1H-pyrazole-4-carboxamide] | 
